{"source": "paper PMC6713262", "about": "(Cell, 2019)", "assay_type_in_all_cases": "cell-based", "key": {"[1]": {"target": "CB2 G304E (Homo sapiens, UniProt P34972, G304E)", "sequence (P34972 whole entry G304E)": "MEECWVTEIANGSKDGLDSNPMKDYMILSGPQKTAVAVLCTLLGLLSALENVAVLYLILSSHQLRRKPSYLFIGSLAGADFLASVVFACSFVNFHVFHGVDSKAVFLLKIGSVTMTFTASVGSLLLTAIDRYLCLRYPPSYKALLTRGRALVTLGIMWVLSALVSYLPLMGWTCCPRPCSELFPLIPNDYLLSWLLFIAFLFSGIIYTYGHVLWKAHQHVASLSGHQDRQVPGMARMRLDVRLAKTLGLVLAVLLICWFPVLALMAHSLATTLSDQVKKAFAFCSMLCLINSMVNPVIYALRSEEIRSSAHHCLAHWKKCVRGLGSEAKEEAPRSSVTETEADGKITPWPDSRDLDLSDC", "experiment": "Receptor activity at CB2 stabilizing point mutant G304E"}, "[2]": {"target": "wild-type CB2 (Homo sapiens, UniProt P34972)", "sequence (P34972 whole entry)": "as the sequence (P34972 whole entry G304E) above, with E304G counted along it", "experiment": "Forskolin-stimulated cAMP accumulation"}, "[3]": {"target": "CB2 G78L (Homo sapiens, UniProt P34972, G78L)", "sequence (P34972 whole entry G78L)": "as the sequence (P34972 whole entry G304E) above, with G78L, E304G counted along it", "experiment": "Receptor activity at CB2 stabilizing point mutant G78L"}, "[4]": {"target": "CB2 (Homo sapiens, UniProt P34972)", "sequence (P34972 whole entry)": "as the sequence (P34972 whole entry G304E) above, with E304G counted along it", "experiment": "β-arrestin2 recruitment assay", "settings": "for Emax (fold): CB2 β-arrestin2; for EC50: EC50, CB2 β-arrestin2"}, "[5]": {"target": "CB2 R242E (Homo sapiens, UniProt P34972, R242E)", "sequence (P34972 whole entry R242E)": "as the sequence (P34972 whole entry G304E) above, with R242E, E304G counted along it", "experiment": "Receptor activity at CB2 stabilizing point mutant R242E"}, "[6]": {"target": "CB2 T127A (Homo sapiens, UniProt P34972, T127A)", "sequence (P34972 whole entry T127A)": "as the sequence (P34972 whole entry G304E) above, with T127A, E304G counted along it", "experiment": "Receptor activity at CB2 stabilizing point mutant T127A"}, "[7]": {"target": "CB2 T153L (Homo sapiens, UniProt P34972, T153L)", "sequence (P34972 whole entry T153L)": "as the sequence (P34972 whole entry G304E) above, with T153L, E304G counted along it", "experiment": "Receptor activity at CB2 stabilizing point mutant T153L"}, "[8]": {"target": "CB1 (Homo sapiens, UniProt P21554)", "sequence (P21554 whole entry)": "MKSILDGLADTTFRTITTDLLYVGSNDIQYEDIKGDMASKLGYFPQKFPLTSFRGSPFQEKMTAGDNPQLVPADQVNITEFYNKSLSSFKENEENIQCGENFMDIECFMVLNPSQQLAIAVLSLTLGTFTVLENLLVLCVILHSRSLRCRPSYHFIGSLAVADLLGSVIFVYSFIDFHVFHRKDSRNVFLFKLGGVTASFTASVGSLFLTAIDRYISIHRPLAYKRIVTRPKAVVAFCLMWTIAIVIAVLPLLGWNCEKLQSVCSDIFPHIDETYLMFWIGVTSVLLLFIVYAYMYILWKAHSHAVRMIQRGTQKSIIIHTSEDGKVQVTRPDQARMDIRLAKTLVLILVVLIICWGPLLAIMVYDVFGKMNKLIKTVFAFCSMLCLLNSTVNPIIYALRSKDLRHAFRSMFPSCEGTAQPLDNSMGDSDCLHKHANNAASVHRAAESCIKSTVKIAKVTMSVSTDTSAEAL", "experiment": "β-arrestin2 recruitment assay at CB1", "settings": "for Emax (fold): CB1 β-arrestin2"}}, "data": [{"smiles": "Cc1c(C(=O)NC23CC4CC(CC(C4)C2)C3)nn(CCCCCO)c1-c1ccccc1", "note": "[AM10257, 1-(5-Hydroxypentyl)-4-methyl-5-phenyl-N-tricyclo[3.3.1.1^3,7]dec-1-yl-1H-pyrazole-3-carboxamide]", "values": [{"measurement": "IC50", "setting": "[1]", "result": "32.1 ± 6.2", "unit": "nM"}, {"measurement": "IC50", "setting": "[2]", "result": "35.9 ± 3.2", "unit": "nM"}, {"measurement": "Kb", "setting": "[2]", "result": 5.01, "unit": "nM"}, {"measurement": "Functional profile at CB2 (adenylyl cyclase assay)", "setting": "[2]; against CP55,940, Figure 1B", "result": "competitive antagonist/inverse agonist"}, {"measurement": "IC50", "setting": "[3]", "result": "59.7 ± 8.1", "unit": "nM"}, {"measurement": "Functional profile at CB2 (β-arrestin2 recruitment)", "setting": "[4]", "result": "competitive antagonist/inverse agonist"}, {"measurement": "Emax (fold)", "setting": "[4]; Figure 1C", "result": "0.70 ± 0.05", "unit": "fold"}, {"measurement": "EC50", "setting": "[4]; Figure 1C", "result": "0.53 ± 0.29", "unit": "nM"}, {"measurement": "EC50", "setting": "[4]; Figure 6C", "result": "0.2 ± 0.04", "unit": "nM"}, {"measurement": "IC50", "setting": "[5]", "result": "46.7 ± 11.3", "unit": "nM"}, {"measurement": "IC50", "setting": "[6]", "result": "40.1 ± 4.5", "unit": "nM"}, {"measurement": "IC50", "setting": "[7]", "result": "46.2 ± 4.6", "unit": "nM"}, {"measurement": "EC50", "setting": "[8]", "result": "51.5 ± 7.4", "unit": "nM"}, {"measurement": "Functional profile at CB1 (β-arrestin2 recruitment)", "setting": "[8]", "result": "partial agonist"}, {"measurement": "Emax (fold)", "setting": "[8]; Figure 5C", "result": "2.4 ± 0.1", "unit": "fold"}]}, {"smiles": "CC(=O)OCCn1c(C)c(C)sc1=NC(=O)C1C(C)(C)C1(C)C", "note": "[MRI2594, 2-(4,5-dimethyl-2-((2,2,3,3-tetramethylcyclopropane-1-carbonyl)imino)thiazol-3(2H)-yl)ethyl acetate]", "values": [{"measurement": "Functional profile at CB2 (β-arrestin2 recruitment)", "setting": "[4]", "result": "agonist"}, {"measurement": "Emax (fold)", "setting": "[4]; Figure 6C", "result": "2.0 ± 0.2", "unit": "fold"}, {"measurement": "EC50", "setting": "[4]; Figure 6C", "result": "0.17 ± 0.03", "unit": "nM"}, {"measurement": "EC50", "setting": "[8]", "result": "310 ± 54", "unit": "nM"}, {"measurement": "Functional profile at CB1 (β-arrestin2 recruitment)", "setting": "[8]", "result": "agonist"}, {"measurement": "Emax (fold)", "setting": "[8]; Figure 6D", "result": "28.0 ± 2.0", "unit": "fold"}]}, {"smiles": "CC(=O)OCCn1c(=NC(=O)C2C(C)(C)C2(C)C)sc2cc(C)ccc21", "note": "[MRI2687, 2-(6-methyl-2-((2,2,3,3-tetramethylcyclopropane-1-carbonyl)imino)benzo[d]thiazol-3(2H)-yl)ethyl acetate]", "values": [{"measurement": "Functional profile at CB2 (β-arrestin2 recruitment)", "setting": "[4]", "result": "inverse agonist"}, {"measurement": "Emax (fold)", "setting": "[4]; Figure 6C", "result": "0.75 ± 0.04", "unit": "fold"}, {"measurement": "EC50", "setting": "[4]; Figure 6C", "result": "0.24 ± 0.06", "unit": "nM"}, {"measurement": "EC50", "setting": "[8]", "result": "114 ± 15", "unit": "nM"}, {"measurement": "Functional profile at CB1 (β-arrestin2 recruitment)", "setting": "[8]", "result": "partial agonist"}, {"measurement": "Emax (fold)", "setting": "[8]; Figure 6D", "result": "6.0 ± 0.3", "unit": "fold"}]}]}
